PubChem BioAssay AID284 (DTP/NCI, 2004)
Where “and” joins values, the source holds several entries; their conditions need not be identical. Equal entries are not always repeated. Inconclusive results and toxic doses are left out.

Tested on: BDF1 mice, L1210/MTX-resistant leukemia ip, survival T/C
Experiment: NCI In Vivo Anticancer Drug Screen. Data for tumor model L1210 Leukemia resistant to Methotrexate; NSC 740 (intraperitoneal) in B6D2F1 (BDF1) mice
Conditions: endpoint: mean survival time, higher = longer survival
Protocol: The antitumor activity of compounds was measured in mice bearing transplantable tumors. Survival or tumor size were measured and the results are expressed as the measurement made in the treated group (T) divided by the measurement made in the vehicle treated control group (C). The tumor model used in this assay is L1210 Leukemia resistant to Methotrexate; NSC 740 (intraperitoneal) in B6D2F1 (BDF1) mice

[1] = dose: 3.0 mg/kg/injection, schedule: Q01DX Z (ip), vehicle: carboxymethylcellulose (CMC)
[2] = dose: 6.0 mg/kg/injection, schedule: Q01DX Z (ip), vehicle: carboxymethylcellulose (CMC)
[3] = dose: 9.0 mg/kg/injection, schedule: Q01DX Z (ip), vehicle: carboxymethylcellulose (CMC)
[4] = dose: 36.0 mg/kg/injection, schedule: Q01DX Z (ip), vehicle: carboxymethylcellulose (CMC)

For `S=c1nc[nH]c2nc[nH]c12`, which T/C (dose: 1.2 mg/kg/injection, schedule: Q01DX Z (ip), vehicle: carboxymethylcellulose (CMC)) is on record?
Its T/C is 118 % of control.

And the T/C (dose: 2.4 mg/kg/injection, schedule: Q01DX Z (ip), vehicle: carboxymethylcellulose (CMC))?
The T/C was 91 % of control.

And the T/C [1]?
Its T/C is 95 % of control.

And the T/C (dose: 5.0 mg/kg/injection, schedule: Q01DX010 (ip), vehicle: alkali diluted with saline)?
Its T/C is 100 % of control.

What about the T/C (dose: 5.0 mg/kg/injection, schedule: Q01DX Z (ip), vehicle: alkali diluted with saline) of the same compound?
The T/C was 120 % of control and 91 % of control and 102 % of control.

And the T/C [2]?
Its T/C is 111 % of control.

And the T/C [3]?
Its T/C is 95 % of control.

What about the T/C (dose: 10.0 mg/kg/injection, schedule: Q01DX010 (ip), vehicle: alkali diluted with saline) of the same compound?
The T/C was 99 % of control.

And the T/C (dose: 10.0 mg/kg/injection, schedule: Q01DX Z (ip), vehicle: alkali diluted with saline)?
Its T/C is 94 % of control and 110 % of control.

What about the T/C (dose: 12.0 mg/kg/injection, schedule: Q01DX Z (ip), vehicle: carboxymethylcellulose (CMC)) of the same compound?
The T/C was 98 % of control.

What about the T/C (dose: 20.0 mg/kg/injection, schedule: Q01DX010 (ip), vehicle: alkali diluted with saline) of the same compound?
The T/C was 101 % of control.

And the T/C (dose: 20.0 mg/kg/injection, schedule: Q01DX Z (ip), vehicle: alkali diluted with saline)?
Its T/C is 117 % of control and 91 % of control and 102 % of control.

And the T/C (dose: 25.0 mg/kg/injection, schedule: Q01DX Z (ip), vehicle: other)?
Its T/C is 93 % of control and 103 % of control.

What about the T/C [4] of the same compound?
Its T/C is 102 % of control.

What about the T/C (dose: 40.0 mg/kg/injection, schedule: Q01DX010 (ip), vehicle: alkali diluted with saline) of the same compound?
The T/C was 104 % of control.

And the T/C (dose: 80.0 mg/kg/injection, schedule: Q01DX010 (ip), vehicle: alkali diluted with saline)?
Its T/C is 95 % of control.

What about the T/C (dose: 100.0 mg/kg/injection, schedule: Q01DX Z (ip), vehicle: other) of the same compound?
The T/C was 123 % of control and 98 % of control.

For `Clc1ncnc2nc[nH]c12`, which T/C (dose: 7.5 mg/kg/injection, schedule: Q01DX010 (ip), vehicle: saline) is on record?
The T/C was 90 % of control.

And the T/C (dose: 15.0 mg/kg/injection, schedule: Q01DX010 (ip), vehicle: saline)?
The T/C was 90 % of control and 96 % of control.

And the T/C (dose: 30.0 mg/kg/injection, schedule: Q01DX010 (ip), vehicle: saline)?
The T/C was 92 % of control and 100 % of control.

What about the T/C (dose: 60.0 mg/kg/injection, schedule: Q01DX010 (ip), vehicle: saline) of the same compound?
Its T/C is 96 % of control.

What does the source list for `O=C(Nc1ccc(C2=NCCN2)cc1)c1cccc(C(=O)Nc2ccc(C3=NCCN3)cc2)c1`?
T/C (dose: 8.0 mg/kg/injection, schedule: Q01DX010 (ip), vehicle: saline): 177 % of control and 209 % of control; T/C (dose: 12.5 mg/kg/injection, schedule: Q01DX Z (ip), vehicle: methylcellulose (MC)): 122 % of control; T/C (dose: 16.0 mg/kg/injection, schedule: Q01DX010 (ip), vehicle: saline): 211 % of control and 247 % of control; T/C (dose: 32.0 mg/kg/injection, schedule: Q01DX010 (ip), vehicle: saline): 225 % of control and 256 % of control; T/C (dose: 50.0 mg/kg/injection, schedule: Q01DX Z (ip), vehicle: methylcellulose (MC)): 95 % of control; T/C (dose: 64.0 mg/kg/injection, schedule: Q01DX010 (ip), vehicle: saline): 235 % of control and 250 % of control

Which T/C (dose: 0.37 mg/kg/injection, schedule: Q01DX Z (ip), vehicle: carboxymethylcellulose (CMC)) does the source give for `Cc1cc(N(CCCl)CCCl)ccc1N=Nc1ccccc1C(=O)O` here?
The T/C was 104 % of control.

And the T/C (dose: 0.75 mg/kg/injection, schedule: Q01DX Z (ip), vehicle: carboxymethylcellulose (CMC))?
Its T/C is 124 % of control.

What about the T/C [1] of the same compound?
The T/C was 94 % of control.

And the T/C (dose: 4.0 mg/kg/injection, schedule: Q01DX Z (ip), vehicle: carboxymethylcellulose (CMC))?
The T/C was 109 % of control.

And the T/C (dose: 5.0 mg/kg/injection, schedule: Q01DX010 (ip), vehicle: saline)?
Its T/C is 123 % of control.

And the T/C [2]?
The T/C was 124 % of control.

What about the T/C (dose: 8.0 mg/kg/injection, schedule: Q01DX Z (ip), vehicle: carboxymethylcellulose (CMC)) of the same compound?
The T/C was 104 % of control.

And the T/C (dose: 10.0 mg/kg/injection, schedule: Q01DX010 (ip), vehicle: saline)?
The T/C was 107 % of control.

And the T/C (dose: 10.0 mg/kg/injection, schedule: Q01DX Z (ip), vehicle: carboxymethylcellulose (CMC))?
The T/C was 97 % of control.

And the T/C (dose: 20.0 mg/kg/injection, schedule: Q01DX010 (ip), vehicle: saline)?
Its T/C is 88 % of control.

With `CCc1nc(N)nc(N)c1-c1ccc(Cl)cc1` as the compound, how does the T/C [3] read?
Its T/C is 92 % of control.

And the T/C (dose: 18.0 mg/kg/injection, schedule: Q01DX Z (ip), vehicle: carboxymethylcellulose (CMC))?
Its T/C is 96 % of control.

What about the T/C [4] of the same compound?
The T/C was 95 % of control.

How did the T/C (dose: 25.0 mg/kg/injection, schedule: Q01DX Z (ip), vehicle: carboxymethylcellulose (CMC)) turn out when `N#CCSc1ncnc2nc[nH]c12` was run?
The T/C was 101 % of control.

What about the T/C (dose: 50.0 mg/kg/injection, schedule: Q01DX Z (ip), vehicle: carboxymethylcellulose (CMC)) of the same compound?
Its T/C is 120 % of control.

What about the T/C (dose: 100.0 mg/kg/injection, schedule: Q01DX Z (ip), vehicle: carboxymethylcellulose (CMC)) of the same compound?
The T/C was 111 % of control.
